Data reported in patent US20120100564A1, “Prediction of Memapsin 2 Cleavage Sites” (priority 2010, published 2012).
Peptide text beside a SMILES is read from it.

Tests used:
γ-secretase = assay: CTF99 level in APP-transfected CAD cells with γ-secretase inhibitor (Western blot); format: cell-based, mouse; details: in both APPIDF and APPSW cells
Procedure: Cell culture, transfection and analysis of APP processing products. Mouse neuronal CAD cell line was cultured with DMEM/F12 media (Invitrogen, Carlsbad, Calif.) containing 10% fetal bovine serum and 2% penicillin/streptomycin. Transient trransfections were performed using Fugene HD (Roche, Sweden) according to the manufacture's instruction. 24 hours later after transfection, total cell lysate and cell media were collected and 1% of Protease inhibitor was added (Calbiochem, Gibbstown, N.J.). Aβ level in media was assayed by Aβ [1-40] Human Fluorimetric ELISA Kit (invitrogen, Carlsbad, Calif.). Conditioned media or total cell lysate from the transiently transfected cells were subjected to 10% or 10-20% tricine SDS-PAGE gels (Invitrogen, Carlsbad, Calif.), and transferred to PVDF membranes. The blots were probed with antibodies. The western blot analysis was used for determining the levels of full-length APP, APP's proteolytic products and β-actin.
APPIDF and APPSW cells were also similar in cellular processing characteristics. […] CTF99 is increased in both APPIDF and APPSW cells when γ-secretase inhibitor DAPT slowed its degradation (FIG. 4A, second line, right lanes). As expected, APP ectodomain fragment from α-secretase cleavage, sAPPα, decreased in both APPIDF and APPSW cells as compared to that in APPWT cells (FIG. 4A, fourth panel).

human memapsin 2 = biological target: T1, human memapsin 2 (Homo sapiens, UniProt P56817); assay: Determination of kcat/KM of memapsin 2 substrate peptides (steady-state kinetics and competitive hydrolysis, ESI LC/MS); format: biochemical; details: steady-state kinetics, substrate 5 μM to 150 μM, pH 4.0, 37° C.
T1 construct: The ecto-domain of human memapsin 2 was expressed and purified as described previously (Hong et al., 2000); made in house
T1 sequence (P56817 46-457 limits assumed): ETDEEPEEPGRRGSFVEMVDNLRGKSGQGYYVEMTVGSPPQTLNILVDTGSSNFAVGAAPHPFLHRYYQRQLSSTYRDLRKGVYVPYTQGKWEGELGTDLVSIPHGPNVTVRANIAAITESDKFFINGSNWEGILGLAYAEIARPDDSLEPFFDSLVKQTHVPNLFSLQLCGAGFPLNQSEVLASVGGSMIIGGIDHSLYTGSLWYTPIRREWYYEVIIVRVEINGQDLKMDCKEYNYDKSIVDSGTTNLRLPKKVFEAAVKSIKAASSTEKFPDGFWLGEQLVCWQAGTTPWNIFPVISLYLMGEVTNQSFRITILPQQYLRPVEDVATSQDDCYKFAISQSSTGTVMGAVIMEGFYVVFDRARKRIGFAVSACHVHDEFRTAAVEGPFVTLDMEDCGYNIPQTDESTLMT
Text: Materials. α-cyan-4 hydroxycinnamic acid, D0- and D6-form acetic anhydride , N-hydroxysuccinimide were purchased from Sigma. Peptide (Des-Ser1)-Cerebellin was purchased from Bachem (Bubendorf, Switzerland). All peptides derived from memapsin 2 potential substrates were synthesized by GenScript (Piscataway, N.J.). The ecto-domain of human memapsin 2 was expressed and purified as described previously (Hong et al., 2000). Monoclonal anti-memapsin 2 antibody 3E7 was purchased from Santa Cruz Biotechnology Inc (Santa Cruz, Calif.). Monoclonal anti-APP antibody 1560, MAB348 and polyclonal anti-APP antibody 5352 were purchased from Millipore (Billerica, Mass.). Monoclonal anti-actin antibody was purchased from Abcam (Cambridge, Mass.).
Determination of kcat/KM of different memapsin 2's substrates. […] Initial velocity was determined by ESI LC/MS, in which the product an substrate peak areas were quantitated. The kinetic parameters, kcat and KM were determined from non-linear regression using Grafit software (Surrey, UK). […] Relative kcat/KM of different substrates were determined by comparing the initial hydrolysis rates to that of VGSC beta 2.
Comparison of the kinetics for peptides derived from memapsin 2 protein substrates. […] The relative kcat/KM values of other twelve peptides were determined from their relative pseudo-first-order hydrolytic rates. […]

Structure (SMILES)	CTF99 level (γ-secretase)	Km (human memapsin 2) [µM]
C[C@H](NC(=O)Cc1cc(F)cc(F)c1)C(=O)N[C@H](C(=O)OC(C)(C)C)c1ccccc1 [DAPT]	increased	
CC[C@H](C)[C@H](NC(=O)[C@H](CCCCN)NC(=O)CNC(=O)[C@H](Cc1c[nH]cn1)NC(=O)CNC(=O)[C@@H](N)CCCNC(=N)N)C(=O)N[C@@H](Cc1ccc(O)cc1)C(=O)N[C@@H](CC(C)C)C(=O)N[C@@H](CCC(N)=O)C(=O)N[C@H](C(=O)N[C@@H](CC(C)C)C(=O)N[C@@H](CC(C)C)C(=O)O)C(C)C [VGSC-β2] (H-RGHGKIYLQVLL-OH)		36.4
